Reference: ChEMBL document CHEMBL1123035, “Synthesis and LSD-like discriminative stimulus properties in a series of N(6)-alkyl norlysergic acid N,N-diethylamide derivatives” (J Med Chem, 1985)

Tests used:
[1] = system: Rattus norvegicus; assay: Number of rats scored LSD correct/number tested was reported at a dose of 3.710 uM/kg using 2-lever drug discrimination assay; complete generalisation did not occur at the highest dose used; format: ADME, organism-based; conditions: in vivo
[2] = system: Rattus norvegicus; assay: Number of rats scored LSD correct/number tested was reported at a dose of 185.5 nM/kg using 2-lever drug discrimination assay; 1/8; format: functional
[3] = system: Rattus norvegicus; assay: Number of rats scored LSD correct/number tested was reported at a dose of 371 nM/kg using 2-lever drug discrimination assay; 3/8; format: functional
[4] = system: Rattus norvegicus; assay: Number of rats scored LSD correct/number tested was reported at a dose of 46.5 nM/kg using 2-lever drug discrimination assay; 0/8; format: functional
[5] = system: Rattus norvegicus; assay: Number of rats scored LSD correct/number tested was reported at a dose of 742 nM/kg using 2-lever drug discrimination assay; 7/8; format: functional
[6] = system: Rattus norvegicus; assay: Number of rats scored LSD correct/number tested was reported at a dose of 93 nM/kg using 2-lever drug discrimination assay; 1/8; format: functional
[7] = organism: Rattus norvegicus; assay: Effective dose at which 50% of the rats tested selected the LSD-appropriate lever was reported; 0.209-0.610; format: functional
[8] = organism: Rattus norvegicus; assay: Potency ratio was obtained using a 3 point x 3 point parallel-line bioassay for quantal data and reflects the potency relative to LSD; 0.21-0.08; format: functional
[9] = system: Rattus norvegicus; assay: Number of rats scored LSD correct/number tested was reported at a dose of 11.5 nM/Kg using 2-lever drug discrimination assay; 2/8; format: functional
[10] = system: Rattus norvegicus; assay: Number of rats scored LSD correct/number tested was reported at a dose of 185 nM/kg using 2-lever drug discrimination assay; 8/8; format: functional
[11] = system: Rattus norvegicus; assay: Number of rats scored LSD correct/number tested was reported at a dose of 23 nM/Kg using 2-lever drug discrimination assay; 2/8; format: functional
[12] = system: Rattus norvegicus; assay: Number of rats scored LSD correct/number tested was reported at a dose of 46.5 nM/Kg using 2-lever drug discrimination assay; 4/8; format: functional
[13] = system: Rattus norvegicus; assay: Number of rats scored LSD correct/number tested was reported at a dose of 93 nM/Kg using 2-lever drug discrimination assay; 6/8; format: functional
[14] = organism: Rattus norvegicus; assay: Effective dose at which 50% of the rats tested selected the LSD-appropriate lever was reported; 0.019-0.071; format: functional
[15] = organism: Rattus norvegicus; assay: Potency ratio was obtained using a 3 point x 3 point parallel-line bioassay for quantal data and reflects the potency relative to LSD; 1.62-0.62; format: functional
[16] = system: Rattus norvegicus; assay: Number of rats scored LSD correct/number tested was reported at a dose of 11.5 nM/Kg using 2-lever drug discrimination assay; 0/8; format: functional
[17] = system: Rattus norvegicus; assay: Number of rats scored LSD correct/number tested was reported at a dose of 185.5 nM/Kg using 2-lever drug discrimination assay; 8/8; format: functional
[18] = system: Rattus norvegicus; assay: Number of rats scored LSD correct/number tested was reported at a dose of 93.0 nM/Kg using 2-lever drug discrimination assay; 6/8; format: functional
[19] = organism: Rattus norvegicus; assay: Effective dose at which 50% of the rats tested selected the LSD-appropriate lever was reported; 0.029-0.072; format: functional
[20] = organism: Rattus norvegicus; assay: Potency ratio was obtained using a 3 point x 3 point parallel-line bioassay for quantal data and reflects the potency relative to LSD; format: functional
[21] = system: Rattus norvegicus; assay: Number of rats scored LSD correct/number tested was reported at a dose of 11.5 nM/kg using 2-lever drug discrimination assay; 4/8; format: functional
[22] = system: Rattus norvegicus; assay: Number of rats scored LSD correct/number tested was reported at a dose of 23 nM/kg using 2-lever drug discrimination assay; 4/8; format: functional
[23] = system: Rattus norvegicus; assay: Number of rats scored LSD correct/number tested was reported at a dose of 46.5 nM/kg using 2-lever drug discrimination assay; 6/8; format: functional
[24] = system: Rattus norvegicus; assay: Number of rats scored LSD correct/number tested was reported at a dose of 5.75 nM/kg using 2-lever drug discrimination assay; 3/8; format: functional
[25] = system: Rattus norvegicus; assay: Number of rats scored LSD correct/number tested was reported at a dose of 93 nM/kg using 2-lever drug discrimination assay; 8/8; format: functional
[26] = organism: Rattus norvegicus; assay: Effective dose at which 50% of the rats tested selected the LSD-appropriate lever was reported; 0.006-0.027; format: functional
[27] = organism: Rattus norvegicus; assay: Potency ratio was obtained using a 3 point x 3 point parallel-line bioassay for quantal data and reflects the potency relative to LSD; 3.27-1.24; format: functional
[28] = system: Rattus norvegicus; assay: Number of rats scored LSD correct/number tested was reported at a dose of 0.742 uM/kg using 2-lever drug discrimination assay; complete generalisation did not occur at the highest dose used; format: ADME, organism-based; conditions: in vivo
[29] = system: Rattus norvegicus; assay: Number of rats scored LSD correct/number tested was reported at a dose of 185.5 nM/Kg using 2-lever drug discrimination assay; 5/8; format: functional
[30] = system: Rattus norvegicus; assay: Number of rats scored LSD correct/number tested was reported at a dose of 23 nM/Kg using 2-lever drug discrimination assay; 1/8; format: functional
[31] = system: Rattus norvegicus; assay: Number of rats scored LSD correct/number tested was reported at a dose of 371 nM/kg using 2-lever drug discrimination assay; 8/8; format: functional
[32] = system: Rattus norvegicus; assay: Number of rats scored LSD correct/number tested was reported at a dose of 46.5 nM/Kg using 2-lever drug discrimination assay; 2/8; format: functional
[33] = system: Rattus norvegicus; assay: Number of rats scored LSD correct/number tested was reported at a dose of 93 nM/kg using 2-lever drug discrimination assay; 3/8; format: functional
[34] = organism: Rattus norvegicus; assay: Effective dose at which 50% of the rats tested selected the LSD-appropriate lever was reported; 0.052-0.186; format: functional
[35] = organism: Rattus norvegicus; assay: Potency ratio was obtained using a 3 point x 3 point parallel-line bioassay for quantal data and reflects the potency relative to LSD; 0.66-0.25; format: functional
[36] = system: Rattus norvegicus; assay: Number of rats scored LSD correct/number tested was reported at a dose of 11.5 nM/Kg using 2-lever drug discrimination assay; 3/8; format: functional
[37] = system: Rattus norvegicus; assay: Number of rats scored LSD correct/number tested was reported at a dose of 23.0 nM/Kg using 2-lever drug discrimination assay; 3/8; format: functional
[38] = system: Rattus norvegicus; assay: Number of rats scored LSD correct/number tested was reported at a dose of 46.5 nM/Kg using 2-lever drug discrimination assay; 5/8; format: functional
[39] = system: Rattus norvegicus; assay: Number of rats scored LSD correct/number tested was reported at a dose of 5.75 nM/Kg using 2-lever drug discrimination assay; 2/8; format: functional
[40] = system: Rattus norvegicus; assay: Number of rats scored LSD correct/number tested was reported at a dose of 93 nM/Kg using 2-lever drug discrimination assay; 8/8; format: functional
[41] = organism: Rattus norvegicus; assay: Effective dose at which 50% of the rats tested selected the LSD-appropriate lever was reported; 0.010-0.041; format: functional
[42] = organism: Rattus norvegicus; assay: Potency ratio was obtained using a 3 point x 3 point parallel-line bioassay for quantal data and reflects the potency relative to LSD; 2.63-1.00; format: functional

CCN(CC)C(=O)[C@@H]1C=C2c3cccc4[nH]cc(c34)C[C@H]2NC1
Activity [1]: 50%

CCCCN1C[C@H](C(=O)N(CC)CC)C=C2c3cccc4[nH]cc(c34)C[C@H]21
Activity [2]: 1 | Activity [3]: 3 | Activity [4]: 0 | Activity [5]: 7 | Activity [6]: 1 | ED50 [7]: 0.357 µg/kg | Potency ratio [8]: 0.13

CCCN1C[C@H](C(=O)N(CC)CC)C=C2c3cccc4[nH]cc(c34)C[C@H]21
Activity [9]: 2 | Activity [10]: 8 | Activity [11]: 2 | Activity [12]: 4 | Activity [13]: 6 | ED50 [14]: 0.037 µg/kg | Potency ratio [15]: 1

CCN(CC)C(=O)[C@@H]1C=C2c3cccc4[nH]cc(c34)C[C@H]2N(C)C1 [LYSERGIDE]
Activity [16]: 0 | Activity [17]: 8 | Activity [11]: 2 | Activity [12]: 4 | Activity [18]: 6 | ED50 [19]: 0.046 µg/kg | Potency ratio [20]: 1

C=CCN1C[C@H](C(=O)N(CC)CC)C=C2c3cccc4[nH]cc(c34)C[C@H]21
Activity [21]: 4 | Activity [22]: 4 | Activity [23]: 6 | Activity [24]: 3 | Activity [25]: 8 | ED50 [26]: 0.013 µmol/kg | Potency ratio [27]: 2.01

CCN(CC)C(=O)[C@@H]1C=C2c3cccc4[nH]cc(c34)C[C@H]2N(CCc2ccccc2)C1
Activity [28]: 25%

CCN(CC)C(=O)[C@@H]1C=C2c3cccc4[nH]cc(c34)C[C@H]2N(C(C)C)C1
Activity [29]: 5 | Activity [30]: 1 | Activity [31]: 8 | Activity [32]: 2 | Activity [33]: 3 | ED50 [34]: 0.1 µg/kg | Potency ratio [35]: 0.41

CCN(CC)C(=O)[C@@H]1C=C2c3cccc4[nH]cc(c34)C[C@H]2N(CC)C1
Activity [36]: 3 | Activity [37]: 3 | Activity [38]: 5 | Activity [39]: 2 | Activity [40]: 8 | ED50 [41]: 0.02 µg/kg | Potency ratio [42]: 1.63
